Test results as given in the supplement of paper PMC10307832.

How the values were obtained:
Assay in all cases: relative viability (nuclei count vs DMSO), 5 days (fraction); higher = more cells survive
[1] = compound: CC1=NN=C(O1)C2=NN=C(C=C2)N3CCC(CC3)OC4=C(C=CC(=C4)F)Cl + O=C(c1cc(Cc2n[nH]c(=O)c3ccccc23)ccc1F)N1CCN(C(=O)C2CC2)CC1 [Olaparib] (partner 8 µM)
Outline: (§1)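 A single step with final 0.05% Triton X-100, 1% formaldehyde and 1 ug/ml Hoechst fixed the cells and stained nuclei 5 days after treatment. Lung cancer cell lines in 1536-well plates had been treated by pin tool the day after seeding with one drug alone or a fixed anchor-drug dose plus five library-drug doses (not always all listed) in √10 steps, and nuclei were counted on 4× images. Relative viability is the ratio of nuclei in treated wells to nuclei in vehicle wells, taken as the median of duplicate plates.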

Tosedostat + Lapatinib = compound: CC(C)C[C@@H](C(=O)N[C@H](C(=O)OC1CCCC1)c1ccccc1)[C@H](O)C(=O)NO [Tosedostat] + CS(=O)(=O)CCNCc1ccc(-c2ccc3ncnc(Nc4ccc(OCc5cccc(F)c5)c(Cl)c4)c3c2)o1 [Lapatinib] (partner 2 µM)
Outline: as §1

[2] = compound: CC1=NN=C(O1)C2=NN=C(C=C2)N3CCC(CC3)OC4=C(C=CC(=C4)F)Cl + Cc1cc(Nc2cc(N3CCN(C)CC3)nc(Sc3ccc(NC(=O)C4CC4)cc3)n2)n[nH]1 [Tozasertib] (partner 0.1 µM)
Outline: as §1

[3] = compound: CC1=NN=C(O1)C2=NN=C(C=C2)N3CCC(CC3)OC4=C(C=CC(=C4)F)Cl + Cc1nc(NC(=O)N2CCC[C@H]2C(N)=O)sc1-c1ccnc(C(C)(C)C(F)(F)F)c1 [Alpelisib] (partner 2 µM)
Outline: as §1

Cell Line	relative viability ([1]; first compound 0.253 µM)	relative viability ([1]; first compound 0.8 µM)	relative viability ([1]; first compound 2.53 µM)	relative viability ([1]; first compound 8 µM)	relative viability (Tosedostat + Lapatinib; first compound 0.02 µM)	relative viability (Tosedostat + Lapatinib; first compound 0.06325 µM)	relative viability (Tosedostat + Lapatinib; first compound 0.2 µM)	relative viability (Tosedostat + Lapatinib; first compound 0.6325 µM)	relative viability (Tosedostat + Lapatinib; first compound 2 µM)	relative viability ([2]; first compound 0.253 µM)	relative viability ([2]; first compound 0.8 µM)	relative viability ([2]; first compound 2.53 µM)	relative viability ([2]; first compound 8 µM)	relative viability ([3]; first compound 0.253 µM)	relative viability ([3]; first compound 0.8 µM)	relative viability ([3]; first compound 2.53 µM)	relative viability ([3]; first compound 8 µM)
NCI-H460	0.15	0.155	0.199	0.198	1.13	0.915	1.07	0.921	0.999	0.0757	0.107	0.144	0.129	0.356	0.359	0.394	0.391
NCI-H520	0.308	0.346	0.294	0.259	0.815	0.984	0.96	0.923	1.03	–	0.38	0.398	0.443	0.864	0.846	0.953	0.88
NCI-H596	0.541	0.732	0.752	0.615	1.21	1.16	1	1.22	1.07	0.966	0.716	0.862	0.826	–	0.535	0.444	0.391
NCI-H647	0.232	0.157	0.173	0.0657	1.17	1.11	1.07	0.926	0.969	0.166	0.105	0.126	0.0876	0.724	0.715	0.764	0.704
NCI-H650	0.39	0.227	0.407	0.382	1.19	0.996	0.608	0.775	0.489	0.724	0.698	0.676	0.682	1.17	0.948	1	0.986
NCI-H661	0.619	0.542	0.583	0.586	0.428	0.479	0.449	0.591	0.425	0.305	0.319	0.308	0.265	0.73	0.421	0.629	0.564
NCI-H727	0.68	0.7	0.656	0.665	1.11	0.589	0.631	0.657	0.575	0.65	0.804	0.53	0.668	0.569	0.58	0.593	0.471
NCI-H838	0.536	0.595	0.637	0.591	0.93	0.914	0.961	0.904	1.24	0.244	0.248	0.247	0.245	0.833	0.867	0.916	0.947
NCI-H1355	0.378	0.422	0.75	0.596	1.02	1.03	0.88	0.913	0.915	0.496	0.344	0.402	0.365	–	–	0.78	0.734
